“Also recorded” adds a separate entry of the source.
Tests used:
FXR (NR1H4) = molecular target: T1, FXR (NR1H4) (Homo sapiens, UniProt Q96RI1); assay: Gal4-FXR hybrid reporter gene assay (off-target profiling); assay type: cell-based; conditions: compared with T0901317
T1 construct: coding for the hinge region, and LBD of the canonical isoform of the respective nuclear receptor; expressed in transfected cells; host or cells: HEK293T
T1 sequence (Q96RI1 262-486 limits assumed): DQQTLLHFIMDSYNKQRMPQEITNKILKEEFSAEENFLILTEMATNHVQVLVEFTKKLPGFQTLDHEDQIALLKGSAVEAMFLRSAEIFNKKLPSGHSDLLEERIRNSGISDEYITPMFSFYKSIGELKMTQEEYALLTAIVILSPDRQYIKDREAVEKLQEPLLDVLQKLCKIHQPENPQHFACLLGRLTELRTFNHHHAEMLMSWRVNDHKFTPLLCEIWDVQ
Source text: (§1) For the hybrid reporter gene assays, the previously reported Gal4-fusion receptor plasmids pFA-CMV-hRORα-LBD, pFA-CMV-hRORβ-LBD, pFA-CMV-hRORγ-LBD, pFA-CMV-hLXRα-LBD, pFA-CMV-hLXRβ-LBD, pFA-CMV-hFXR-LBD, pFA-CMV-hPXR-LBD, and pFA-CMV-hRXRα-LBD, coding for the hinge region, and LBD of the canonical isoform of the respective nuclear receptor were used. pFR-Luc (Stratagene) was used as the reporter plasmid, and pRL-SV40 (Promega) was used in all assays for the normalization of transfection efficiency and cell growth. pECE-SV40-Gal4-VP16 was a gift from Lea Sistonen (Addgene plasmid #71728). The LXR-responsive reporter ABCA1-pGL3 was used for the full-length reporter gene assay.
(§2) The day before transfection, HEK293T cells were seeded in 96-well plates (4 × 10^4 cells/well). Before transfection, the medium was changed to Opti-MEM without any supplements. […] Luminescence was measured with a Spark 10 M luminometer (Tecan Deutschland GmbH). […] EC50/IC50 values and the standard errors thereof were calculated with the mean fold activation values by OriginPro, Version 2025 (OriginLab Corporation, Northampton, MA, USA), fitting a dose–response curve with a variable Hill slope (Levenberg–Marquardt algorithm). […]

PXR (NR1I2) = molecular target: T2, PXR (NR1I2) (Homo sapiens, UniProt O75469); assay: Gal4-PXR hybrid reporter gene assay (off-target profiling); assay type: cell-based; conditions: compared with T0901317
T2 construct: coding for the hinge region, and LBD of the canonical isoform of the respective nuclear receptor; expressed in transfected cells; host or cells: HEK293T
T2 sequence (O75469 146-433 limits assumed): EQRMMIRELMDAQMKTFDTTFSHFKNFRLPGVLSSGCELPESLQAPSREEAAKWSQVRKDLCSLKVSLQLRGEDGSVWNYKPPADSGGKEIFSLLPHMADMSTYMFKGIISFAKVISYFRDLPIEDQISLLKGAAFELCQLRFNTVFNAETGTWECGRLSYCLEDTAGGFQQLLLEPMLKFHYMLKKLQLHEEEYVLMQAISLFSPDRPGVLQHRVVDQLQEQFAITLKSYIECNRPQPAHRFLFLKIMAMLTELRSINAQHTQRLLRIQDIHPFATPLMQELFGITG
Source text: as §1, §2

CCN(C(=O)c1ccccc1)c1ccc(C(O)(C(F)(F)F)C(F)(F)F)cc1 [Compound 1, N-Ethyl-N-(4-[1,1,1,3,3,3-hexafluoro-2-hydroxypropan-2-yl]phenyl)benzamide]
FXR activity (FXR (NR1H4)): no activity; also recorded: did not affect
PXR activity (PXR (NR1I2)): reduced activity; also recorded: PXR agonism was retained

Reference: PMC12621175, “Scaffold Fusion and SAR Transfer with a Chemical Language Model Generates Novel Liver X Receptor Modulators” (Journal of Medicinal Chemistry, 2025)
